Measurements reported in patent US8697694B2, “Substituted pyridine and pyrimidine derivatives and their use in treating viral infections” (priority 2008, dated 2014).

Tested on: HCV replicon cells
Assay: Cell-based HCV replicon assay (replicon RNA level by real time PCR, Taqman)
Conditions: Hepatitis C virus, 72 h, HCV replicon cells, harvested day 3, replicon RNA by real time PCR; given as number; read-out: EC90 (μM) range
Description: Assays Cell-Based HCV Replicon Assay
To measure cell-based anti-HCV activity of the compounds of the present invention, replicon cells were seeded at 5000 cells/well in 96-well collagen I-coated Nunc plates in the presence of the compound of the invention. Various concentrations of a compound of the invention, typically in 10 serial 2-fold dilutions, were added to the assay mixture, the starting concentration of the compound ranging from 25 μM to 1 μM. The final concentration of DMSO was 0.5%, fetal bovine serum was 10%, in the assay media. Cells were harvested on day 3 by the addition of 1× cell lysis buffer (Ambion cat #8721). The replicon RNA level was measured using real time PCR (Taqman assay). The amplicon was located in 5B. The PCR primers were: 5B.2F, ATGGACAGGCGCCCTGA (SEQ. ID NO. 1); 5B.2R, […] (SEQ. ID NO. 2); the probe sequence was FAM-labeled CACGCCATGCGCTGCGG (SEQ. ID NO. 3). GAPDH RNA was used as endogenous control and was amplified in the same reaction as NS5B (multiplex PCR) using primers and VIC-labeled probe recommended by the manufacturer (PE Applied Biosystem). The real-time RT-PCR reactions were run on ABI PRISM 7900HT Sequence Detection System using the following program: 48′C for 30 min, 95° C. for 10 min, 40 cycles of 95° C. for 15 sec, 60° C. for 1 min. The ΔCT values (CT5B-CTGAPDH) were plotted against the concentration of test compound and fitted to the sigmoid dose-response model using GraphPad PRISM software. EC50 was defined as the concentration of inhibitor necessary to achieve ΔCT=1 over the projected baseline; EC90 the concentration necessary to achieve ΔCT=3.2 over the baseline. Alternatively, to quantitate the absolute amount of replicon RNA, a standard curve was established by including serially diluted T7 transcripts of replicon RNA in the Taqman assay. All Taqman reagents were from PE Applied Biosystems. Such an assay procedure was described in detail in e.g. Malcolm et al., Antimicrobial Agents and Chemotherapy 50: 1013-1020 (2006).
HCV Replicon assay data for compounds of the invention that were tested was obtained using the above method. Calculated EC90 values are reported for each compound in Table I as a falling within the following ranges: […]

Structure (SMILES) | EC90
Cc1nc(NCC2CC2)nc(N[C@@H]2C[C@H](CO)[C@@H](O)[C@H]2O)c1-c1cc2cc(OCC3CC3)nc(C)c2o1 [Example 42] | 0.3 µM
Cc1nc(NCC(C)(C)C)nc(N[C@@H]2C[C@H](CO)[C@@H](O)[C@H]2O)c1-c1cc2cc(OCC(F)(F)F)nc(C)c2o1 [Example 46] | 0.85 µM
CCOc1cc2cc(-c3c(C)nc(NCC(C)(C)C)nc3N[C@@H]3C[C@H](CO)[C@@H](O)[C@H]3O)oc2c(C)n1 [Example 27] | 0.35 µM
CCOc1cc2cc(-c3c(C)nc(NCC4CC4)nc3N[C@@H]3C[C@H](CO)[C@@H](O)[C@H]3O)oc2c(C)n1 [Example 30] | 0.14 µM

Same assay, conditions: Hepatitis C virus, 72 h, HCV replicon cells, harvested day 3, replicon RNA by real time PCR; reported as range class; read-out: EC90 (μM) range

Structure (SMILES) | EC90
CNc1nc(Cl)c(-c2cc3cc(OC)nc(C)c3o2)c(N[C@@H]2C[C@H](CO)[C@@H](O)[C@H]2O)n1 [Example 15] | < 0.5 µM
CCCc1cc2cc(-c3c(Cl)nc(NC)nc3N[C@@H]3C[C@H](CO)[C@@H](O)[C@H]3O)oc2c(C)n1 [Example 312] | < 0.5 µM
Cc1ccc2nc(-c3c(Cl)nc(N)nc3N[C@@H]3C[C@H](CO)[C@@H](O)[C@H]3O)oc2c1 [Example 191] | 0.5 to 5 µM
CCc1cc2cc(-c3c(Cl)nc(N)nc3N[C@@H]3C[C@H](CO)[C@@H](O)[C@H]3O)oc2c(C)n1 [Example 309] | < 0.5 µM
Nc1nc(Cl)c(-c2cc3cc(F)ccc3o2)c(N[C@@H]2C[C@H](CO)[C@@H](O)[C@H]2O)n1 [Example 164] | > 5 µM
Cc1ccc2oc(-c3c(Cl)nc(N)nc3N[C@@H]3C[C@H](CO)[C@H]4OC(C)(C)O[C@H]43)nc2c1 [Example 192] | > 5 µM
COCCNc1nc(C)c(-c2nc3ccccc3s2)c(N[C@@H]2C[C@H](CO)[C@@H](O)[C@H]2O)n1 [Example 205] | < 0.5 µM
COC[C@H]1C[C@@H](Nc2nc(N(C)C)nc(C)c2-c2nc3ccccc3s2)[C@H](O)[C@@H]1O [Example 123] | > 5 µM
Nc1nc(Cl)c(-c2nc3c(F)cc(F)cc3s2)c(N[C@@H]2C[C@H](CO)[C@@H](O)[C@H]2O)n1 [Example 189] | 0.5 to 5 µM

Same assay, conditions: Hepatitis C virus, 72 h, HCV replicon cells, harvested on day 3, replicon RNA by real time PCR; calculated EC90 reported as range class; read-out: EC90 (μM) range

Structure (SMILES) | EC90
OC[C@H]1C[C@@H](Nc2nc(NC(CF)CF)nc(Cl)c2-c2nc3ccccc3s2)[C@H](O)[C@@H]1O [Example 129] | < 0.5 µM
Cc1nc(NC(C)C)nc(N[C@@H]2C[C@H](CO)[C@@H](O)[C@H]2O)c1-c1nc2ccccc2s1 [Example 427] | < 0.5 µM
Cc1nc(NCc2cccc[n+]2[O-])nc(N[C@@H]2C[C@H](CO)[C@@H](O)[C@H]2O)c1-c1nc2ccccc2s1 [Example 482] | 0.5 to 5 µM
CCCCCNc1nc(C)c(-c2nc3ccccc3s2)c(N[C@@H]2CC[C@H]3OC4(CCCCC4)O[C@@H]23)n1 [Example 332] | > 5 µM
COCCNc1nc(C)c(-c2cc3cc(C(F)(F)F)ncc3o2)c(N[C@@H]2C[C@H](CO)[C@@H](O)[C@H]2O)n1 [Example 139] | 0.5 to 5 µM
Cc1ccsc1CNc1nc(C)c(-c2nc3ccccc3s2)c(N[C@@H]2C[C@H](CO)[C@@H](O)[C@H]2O)n1 [Example 479] | < 0.5 µM
CCc1cc2cc(-c3c(C)nc(NCc4cc(OC)cc(OC)c4)nc3N[C@@H]3C[C@H](CO)[C@@H](O)[C@H]3O)oc2cn1 [Example 346] | < 0.5 µM
CCOCCNc1nc(Cl)c(-c2cc3cc(CC)ncc3o2)c(N[C@@H]2C[C@H](CO)[C@@H](O)[C@H]2O)n1 [Example 512] | < 0.5 µM

Same assay, conditions: Hepatitis C virus, 72 h, HCV replicon cells, replicon RNA level by real time PCR (Taqman), day 3; calculated EC90; read-out: EC90 (μM) range

Structure (SMILES) | EC90
Cc1nc(NCC(F)(F)F)nc(N[C@@H]2C[C@H](CO)[C@H]3OC(C)(C)O[C@H]32)c1-c1nc2ncccc2o1 [Example 2006] | 0.5 to 5 µM

Same assay, conditions: Hepatitis C virus, 72 h, HCV replicon cells, replicon RNA level by real time PCR (Taqman), harvested on day 3; calculated EC90 reported as range class; read-out: EC90 (μM) range

Structure (SMILES) | EC90
COc1cccc(OC)c1Nc1nc(C)c(-c2nc3ccccc3s2)c(N[C@@H]2C[C@H](CO)[C@@H](O)[C@H]2O)n1 [Example 1125] | > 5 µM
CCc1nccc2sc(-c3c(C)nc(NCC4CC4)nc3N[C@@H]3C[C@H](CO)[C@@H](O)[C@H]3O)nc12 [Example 1333] | < 0.5 µM
Cc1nc(NCc2cccs2)nc(N[C@@H]2C[C@H](CN)[C@@H](O)[C@H]2O)c1-c1nc2ccccc2s1 [Example 1328] | < 0.5 µM
Cc1nc(NCC(F)(F)F)nc(N[C@@H]2C[C@H](CN(C)C)[C@@H](O)[C@H]2O)c1-c1nc2ccccc2s1 [Example 1016] | 0.5 to 5 µM
COC(=O)c1cccc(CNc2nc(C)c(-c3nc4ccccc4s3)c(N[C@@H]3C[C@H](CO)[C@@H](O)[C@H]3O)n2)c1 [Example 1218] | 0.5 to 5 µM
COCCCCNc1nc(C)c(-c2nc3ccccc3s2)c(N[C@@H]2C[C@H](CO)[C@@H](O)[C@H]2O)n1 [Example 1048] | < 0.5 µM
Cc1nc(NCC(F)(F)F)nc(N[C@@H]2C[C@H](COC(=O)[C@@H](N)C(C)C)[C@@H](O)[C@H]2O)c1-c1nc2ccccc2s1 [Example 1133] | 0.5 to 5 µM
COCC(O)CNc1nc(C)c(-c2nc3ccccc3s2)c(N[C@@H]2C[C@H](CO)[C@@H](O)[C@H]2O)n1 (some centres unmarked) [Example 1062] | > 5 µM
Cc1nc(NCCC(=O)O)nc(N[C@@H]2C[C@H](CO)[C@@H](O)[C@H]2O)c1-c1nc2ccccc2s1 [Example 1012] | > 5 µM
Cc1nc(Nc2ccccc2OCc2ccccc2)nc(N[C@@H]2C[C@H](CO)[C@H]3OC(C)(C)O[C@H]32)c1-c1nc2ccccc2s1 [Example 1124] | > 5 µM
COc1cc(OC)cc([C@@H](C)Nc2nc(C)c(-c3nc4cnccc4s3)c(N[C@@H]3C[C@H](CO)[C@@H](O)[C@H]3O)n2)c1 [Example 1307] | < 0.5 µM
COc1cc(CNc2nc(CF)c(-c3nc4ccccc4s3)c(N[C@@H]3C[C@H](CO)[C@@H](O)[C@H]3O)n2)cc(OC)c1 [Example 1121] | 0.5 to 5 µM
CNc1nc(C)c(-c2nc3cnccc3s2)c(N[C@@H]2C[C@H](CO)[C@@H](O)[C@H]2O)n1 [Example 1326] | < 0.5 µM
Cc1nc(NCC(C)(C)C)nc(N[C@@H]2C[C@H](CO)[C@@H](O)[C@H]2O)c1-c1nc2c(s1)CCN(C)C2 [Example 1321] | 0.5 to 5 µM
CCOCCNc1nc(C)c(-c2nc3cc(OC)ccc3s2)c(N[C@@H]2C[C@H](CO)[C@@H](O)[C@H]2O)n1 [Example 1008] | 0.5 to 5 µM
CNC[C@H]1C[C@@H](Nc2nc(NCC(F)(F)F)nc(C)c2-c2nc3ccccc3s2)[C@H](O)[C@@H]1O [Example 1071] | 0.5 to 5 µM

Same assay, conditions: Hepatitis C virus, 72 h, HCV replicon cells, replicon RNA level by real time PCR, harvested day 3; read-out: EC90 (μM) range

Structure (SMILES) | EC90
Cc1nc(NCC(F)(F)F)nc(N[C@@H]2C[C@H](C(O)c3nccs3)[C@@H](O)[C@H]2O)c1-c1nc2ccccc2s1 (some centres unmarked) [Example 1639] | < 0.5 µM
CCCc1nccc2sc(-c3c(C)nc(N[C@H](C)C4CC4)nc3N[C@@H]3C[C@H](CS(C)(=O)=O)[C@@H](O)[C@H]3O)nc12 [Example 1381] | < 0.5 µM
Cc1nc(NCC(F)(F)F)nc(N[C@@H]2C[C@H](CNS(=O)(=O)C3CC3)[C@@H](O)[C@H]2O)c1-c1nc2ccccc2s1 [Example 1513] | 0.5 to 5 µM
Cc1nc(NCc2c(F)cccc2F)nc(N[C@@H]2C[C@H](CO)[C@@H](O)[C@H]2O)c1-c1nc2ccccc2s1 [Example 1910] | < 0.5 µM
CCCc1nccc2sc(-c3c(C)nc(N[C@H](C)c4ccc(C)cc4)nc3N[C@@H]3C[C@H](CO)[C@@H](O)[C@H]3O)nc12 [Example 1371] | < 0.5 µM
Cc1nc(NCC(C)(C)C)nc(N[C@H]2C[C@@H](CO)[C@H](O)[C@@H]2O)c1-c1nc2ccccc2s1 [Example 1502] | > 5 µM
Cc1nc(NCC(F)(F)F)nc(N[C@@H]2C[C@H](C(C)O)[C@@H](O)[C@H]2O)c1-c1nc2ccccc2s1 (single isomer, unassigned) [Example 1643] | < 0.5 µM
Cc1nc(NCC(F)(F)F)nc(NC2CCN(C(=O)OC(C)(C)C)C2)c1-c1nc2ccccc2s1 (centres unmarked) [Example 1515] | 0.5 to 5 µM
Cc1nc(N[C@@H](c2ccc(-n3cccn3)cc2)C(F)(F)F)nc(N[C@@H]2C[C@H](CO)[C@@H](O)[C@H]2O)c1-c1nc2c(C)nccc2s1 [Example 1541] | < 0.5 µM
CCN(C[C@H]1C[C@@H](Nc2nc(NCC(F)(F)F)nc(C)c2-c2nc3ccccc3s2)[C@H](O)[C@@H]1O)C(=O)OC [Example 1391] | < 0.5 µM
Cc1ccc([C@@H](C)Nc2cc(C)c(-c3nc4ccccc4s3)c(N[C@@H]3C[C@H](CO)[C@@H](O)[C@H]3O)n2)cc1 [Example 1619] | > 5 µM
Cc1nc(N[C@H](C)c2ccc(OC(F)F)cc2)nc(N[C@@H]2C[C@H](CO)[C@@H](O)[C@H]2O)c1-c1nc2c(C)nccc2s1 [Example 1545] | < 0.5 µM
